# According to BindingDB's records for doi:10.7270/Q2V986KM (Burnham Center For Chemical Genomics, 2011):
# Molecular target: T1, Carboxy-terminal domain RNA polymerase II polypeptide A small phosphatase 1 (Homo sapiens, UniProt Q9GZU7)
# T1 sequence (Q9GZU7 whole entry): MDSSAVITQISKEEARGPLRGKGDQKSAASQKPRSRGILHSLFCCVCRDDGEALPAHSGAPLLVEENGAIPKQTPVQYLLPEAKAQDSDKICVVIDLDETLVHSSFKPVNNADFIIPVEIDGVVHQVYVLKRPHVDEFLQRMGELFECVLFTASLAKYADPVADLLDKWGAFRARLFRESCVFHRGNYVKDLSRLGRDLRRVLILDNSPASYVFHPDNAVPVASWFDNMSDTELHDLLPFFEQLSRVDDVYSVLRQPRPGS
# Assay: Ultra-high-throughput screening actives, CTDSP1 enzyme inhibition, concentration-response testing, biochemical, absorbance detection (AID 540297)
row,SMILES,IC50 [µM]
1,Cc1ccc(-c2csc(-n3[nH]c(C)c(N=Nc4ccccc4O)c3=O)n2)cc1,3.69
2,Cc1[nH][nH]c(=O)c1CCC(=O)NN=Cc1ccco1,> 80
3,CCCCC1(C)OC(=O)C(=Cc2ccc(-c3ccc(Cl)c(C(=O)O)c3)o2)C(=O)O1 (stereo not drawn),15.1
4,CCOc1ccccc1/N=C1\SCCCN1C,23
5,C[N+](C)(C)CCNC(=O)C1=C/C(=C\N=O)N(Cc2ccccc2)C=C1,7.56
6,O=C(CCCC(=O)Nc1cccc(Br)c1)N/N=C/C1C=C([N+](=O)[O-])C=CC1=O (stereo not drawn),6.26
7,CCOC(=O)C1C(COC(=O)C=Cc2ccco2)=NC(=O)NC1C (stereo not drawn),4.25
8,CC(=O)C(C[N+]1(C)CCCCC1)N=O (stereo not drawn),3.4
9,CON=C(C(=O)N[C@@H]1C(=O)N2C(C(=O)O)=C(COC(N)=O)CS[C@H]12)c1ccco1,2.09
10,O=c1c(Cl)c(N=NCc2ccc(Br)cc2)cnn1-c1ccccc1,> 80
11,O=C(O)Cc1sc(N=NCc2ccccc2)nc1-c1ccccc1,5.14
12,O=C(O)CNC(=O)Cc1sc(NNc2nc(O)cs2)nc1O,5.27
13,CCOc1cc(CN=Nc2nc(O)c(CC(=O)O)s2)ccc1OCc1ccccc1Cl,4.28
14,COC(=O)C1C(COc2ccccc2)=NC(=O)NC1c1ccc2ccccc2c1 (stereo not drawn),13.8
15,COc1ccc(N/C(C)=[N+](\C)CCNS(=O)(=O)c2ccc(Cl)cc2)cc1,3.29
16,C/C(Nc1ccc(F)cc1)=[N+](/C)CCNS(=O)(=O)c1ccc(Cl)cc1,5.86
17,Cc1nnc(NS(=O)(=O)c2ccc(/N=N/c3ccc(N)nc3N)cc2)s1,11.5
18,"Cc1cc(C)n2c(SCC(=O)C(C#N)c3nc4ccccc4[nH]3)nnc2n1 (stereo not drawn) [2-(1,3-dihydrobenzimidazol-2-ylidene)-4-[(5,7-dimethyl-[1,2,4]triazolo[4,3-a]pyrimidin-3-yl)sulfanyl]-3-oxidanylidene-butanenitrile]",5.01
19,O=C1Nc2ccc([N+](=O)[O-])cc2/C1=N/NC(=O)c1cc(-c2ccccc2Cl)nc2ccccc12 [2-(2-chlorophenyl)-N'-(2-keto-5-nitro-indol-3-yl)cinchoninohydrazide],0.711
20,"Cc1cc(=O)n(-c2ccc(Cl)c(C(=O)O)c2)[nH]1 [2-Chloro-5-(3-methyl-5-oxo-4,5-dihydro-pyrazol-1-yl)-benzoic acid]",8.96
21,"CCOc1cc(CN=Nc2nc(O)c(CC(=O)O)s2)ccc1OCc1ccc(Cl)cc1 [2-[2-[2-[[4-[(4-chlorophenyl)methoxy]-3-ethoxy-phenyl]methylidene]hydrazinyl]-4-oxidanylidene-1,3-thiazol-5-yl]ethanoic acid]",7.12
22,"COc1cc(CN=Nc2nc(O)c(CC(=O)O)s2)ccc1OCc1ccc(Cl)cc1 [2-[2-[2-[[4-[(4-chlorophenyl)methoxy]-3-methoxy-phenyl]methylidene]hydrazinyl]-4-oxidanylidene-1,3-thiazol-5-yl]ethanoic acid]",12.4
23,"CCOc1cc(CN=Nc2nc(O)c(CC(=O)O)s2)ccc1OCc1ccc(Cl)cc1Cl [2-[2-[(N''E)-N''-[4-(2,4-dichlorobenzyl)oxy-3-ethoxy-benzylidene]hydrazino]-4-keto-2-thiazolin-5-yl]acetic acid]",2.32
24,O=NCc1cc(Br)ccc1OCC(=O)O [2-[4-bromanyl-2-(hydroxyiminomethyl)phenoxy]ethanoic acid],8.03
25,"CCOc1ccccc1C(=O)c1cc(O)c2ccccc2c1O [2-[(2-ethoxyphenyl)-oxidanyl-methyl]naphthalene-1,4-dione]",4.16
26,C=CCOc1ccc(CN=Nc2ccc(S(=O)(=O)Nc3ccccc3C(=O)O)cc2[N+](=O)[O-])cc1OC [2-[[4-[2-[(3-methoxy-4-prop-2-enoxy-phenyl)methylidene]hydrazinyl]-3-nitro-phenyl]sulfonylamino]benzoic acid],2
27,CC(N=Nc1ccc(Cl)c(C(=O)O)c1)c1ccc[nH]1 (stereo not drawn) [2-chloro-5-[2-[(1Z)-1-pyrrol-2-ylideneethyl]hydrazinyl]benzoic acid],4.28
28,O=C1Nc2ccc([N+](=O)[O-])cc2/C1=N/NC(=O)c1ccccc1Cl [2-chloro-N'-(5-nitro-2-oxoindol-3-yl)benzohydrazide],6.44
